The subject of data set [1] is mice. Put plainly: Tail flick test with mice. Type of data set: in vivo, male and female mice. Particulars: Mus musculus, sc, 0.5 h; s.c., 30 min after administration; reaction time 75% longer in 50% of animals. The procedure:
3. Tail flick test with mice.
The method is based on the procedure described by d'Amour and Smith in 1941. In contrast thereto there are used, in place of rats, fed male and female mice of a body weight of 16 g. to 25 g. 30 minutes before treatment with the compound to be tested each mouse is placed into a separate cylindrical container of such a size that the mouse cannot turn around and cannot move forward. Its tail extends outwardly of the container while resting in a narrow trough. A specific spot of the tail of each animal (at a distance of about 35 mm. from the tail root) is exposed to the heat of radiation of a lamp of known strength and temperature. The lamp is positioned directly underneath the tail. The time in seconds which the mouse needs in order to jerk the tail out of the range of the light ray, is determined twice, once 30 minutes and another time 15 minutes before the subcutaneous administration of the compound (10 mg./kg) to be tested. Mice, the reaction time of which deviates by more than 25%, are eliminated and disregarded. The reaction times are again measured 15 minutes and 30 minutes after administration. An increase in the reaction times by more than 75% of the average reaction time values measured before administration of the test compound to the same mouse is considered an analgesic effect. […] The ED50 is calculated according to the method of Litchfield and Wilcoxon (1949).

Another data set concerns rats. Put plainly: Arthritis pain test with rats. Particulars: Rattus norvegicus, po, 3 hours after administration; protection (no or one squeak) in 50% of animals; read-out: Suppression of arthritis pain in rats ED50. The data set is classed as in vivo, Male rats of the strain OFA. The protocol:
2. Arthritis pain test with rats.
Male rats of the strain OFA weighing 160 g. to 180 g. are anesthesized by intraperitoneal administration of 20 mg./kg. of pentobarbital sodium. 0.1 ml. of suspension of Mycobacterium Smegmae (S I043) in paraffin oil (0.6 mg. of Mycobacterium in 0.1 ml. of paraffin oil) are injected intracutaneously into the left hind paw. Fourteen days thereafter, when a pronounced secondary arthritis has developed particularly in the right hind paw, the effects of the compound to be tested are investigated. 30 minutes before the administration of the compound to be tested, a control measurement is carried out by bending three times the ankle joint of the right hind paw and the number of squeaks produced by the animal are counted. […] Three hours after oral administration of the compound to be tested, the bending procedure is repeated. Animals which emit only one squeak or none at all, are considered to be protected against pain. Between 9 and 20 rats are tested per dose and the ED50 (95% confidence limit) is determined according to the method of Litchfield and Wilcoxon (1949). The dose which achieves protection in 50% of the treated animals is designated as the ED50.

In data set [2] the test system is mice. The experiment in a line: Determination of the minimum toxic dose in mice. The data set is classed as in vivo, male mice. The settings on record: p.o., observed 3 hours, deaths and symptoms up to 24 hours; maximum dose 300 mg./kg. The protocol:
1. Determination of the minimum toxic dose.
Maximum doses of 300 mg./kg. of the compound to be tested are administered per os to male mice of a weight of 20 g. to 25 g. The animals are carefully observed for any toxicity symptoms during 3 hours. In addition thereto all symptoms and deaths are registered for a period of time of 24 hours after administration of the drug. Any accompanying symptoms are also observed and registered. When death or toxic symptoms are observed, more and more decreasing doses are administered to other mice, until no more toxic symptoms are encountered. The lowest dose which causes toxic symptoms is given as the minimum toxic dose.

Molecules are shown by their SMILES. Structures can show the parent of a compound that is named as a salt. A value given as a limit tells only on which side of the number the result lay.

On to `CN1c2ccccc2C(c2ccccc2F)=NCC1CNC(=O)Cc1ccccc1Cl` (centres unmarked) [Example 117], for which the ED50 in the data set with mice [1] is 13 mg/kg; with rats it was 6 mg/kg. In addition, in the data set with mice [2], the “Minimum toxic dose in mice” value was above 300 mg/kg.

As to `CN1c2cc3c(cc2C(c2ccccc2)=NCC1CNC(=O)c1ccccc1)OCO3` (centres unmarked) [Example 49], the values for the ED50 in the data set on mice [1] and with rats were 0.56 mg/kg and 2.5 mg/kg, respectively. For the same compound, in the data set on mice [2], the “Minimum toxic dose in mice” value worked out at 100 mg/kg.

Take `COc1ccc2c(c1)N(C)C(CNC(=O)c1ccccc1)CN=C2c1ccc(Cl)cc1Cl` (centres unmarked) [Example 4, 8-Methoxy-1-methyl-2-benzoyl amino methyl-5-(2',4'-dichlorophenyl)-1H-2,3-dihydro-1,4-benzo diazepine]: the ED50 came out at 0.07 mg/kg with mice [1] and 0.5 mg/kg in the data set with rats. In addition, the “Minimum toxic dose in mice” value in the data set on mice [2] came out at 10 mg/kg.

As for `CN1c2ccccc2C(c2ccccc2F)=NCC1CNC(=O)c1ccc(C#N)cc1` (centres unmarked) [Example 29], the 50% effective dose (ED50) in the data set on mice [1] was determined as 21 mg/kg; in the data set on rats it was 1.7 mg/kg. Moreover, in the data set on mice [2], the “Minimum toxic dose in mice” value stood at 300 mg/kg.

Turning to `CN1c2ccccc2C(c2ccccc2)=NCC1CNC(=O)c1ccc([N+](=O)[O-])cc1` (centres unmarked) [Example 28], in the data set on rats, the ED50 was 0.6 mg/kg. In the data set on mice [2], the “Minimum toxic dose in mice” value was above 300 mg/kg.

For the compound `CCN1c2ccccc2C(c2ccccc2F)=NCC1CNC(=O)c1ccc(C(F)(F)F)cc1` (centres unmarked) [Example 154], the ED50 with rats was 2 mg/kg.

For `CN1c2ccccc2C(c2ccccc2)=NCC1CNC(=O)c1ccccc1` (centres unmarked) [Example 1, 1-Methyl-2-benzoyl amino methyl-5-phenyl-1H-2,3-dihydro-1,4-benzo diazepine], the ED50 worked out at 0.52 mg/kg in the data set on mice [1] and 19 mg/kg in the data set on rats. For the same compound, the “Minimum toxic dose in mice” value in the data set on mice [2] was above 300 mg/kg.

Turning to `COc1cccc(C(=O)NCC2CN=C(c3ccccc3F)c3ccccc3N2C)c1` (centres unmarked) [Example 31], the ED50 in the data set with mice [1] is 1.8 mg/kg; with rats, 10 to 18 mg/kg. The “Minimum toxic dose in mice” value in the data set with mice [2] was above 300 mg/kg.

As to `CN1c2cc(F)ccc2C(c2ccccc2)=NCC1CNC(=O)c1ccccc1` (centres unmarked) [Example 59], the 50% effective dose (ED50) in the data set with mice [1] came to 1 mg/kg; in the data set with rats, 9.7 mg/kg. The “Minimum toxic dose in mice” value with mice [2] turned out to be 300 mg/kg.

In the case of `COc1ccc(C(=O)NCC2CN=C(c3ccccc3F)c3ccccc3N2C)cc1` (centres unmarked) [Example 32], the ED50 was determined as 4.2 mg/kg in the data set on mice [1] and 1.7 mg/kg in the data set on rats. For the same compound, the “Minimum toxic dose in mice” value in the data set on mice [2] came to 300 mg/kg.

Consider `COc1ccc2c(c1)N(C)C(CNC(=O)c1ccccc1)CN=C2c1ccccc1F` (centres unmarked) [Example 60], for which the 50% effective dose (ED50) in the data set on mice [1] was 0.32 mg/kg; with rats, 3.5 mg/kg. For the same compound, in the data set on mice [2], the “Minimum toxic dose in mice” value came to 300 mg/kg.

`COc1ccc2c(c1)N(C)C(CNC(=O)c1ccccc1)CN=C2c1cccc(C(F)(F)F)c1` (centres unmarked) [Example 55]: the median effective dose (ED50) in the data set on mice [1] was in the range of 5.6 to 10 mg/kg; in the data set with rats, 10 to 18 mg/kg.

As to `CN1c2ccccc2C(c2ccccc2)=NCC1CNC(=O)c1ccc(Cl)cc1Cl` (centres unmarked) [Example 18], the ED50 with rats was determined as 7.5 mg/kg. Further, in the data set on mice [2], the “Minimum toxic dose in mice” value is above 300 mg/kg.

As to `CN1c2ccccc2C(c2ccccc2F)=NCC1CNC(=O)c1cccc(C#N)c1` (centres unmarked) [Example 35], the ED50 amounted to 13 mg/kg in the data set with mice [1] and 9 mg/kg with rats.

Take `COc1ccc(C(=O)NCC2CN=C(c3ccccc3)c3ccccc3N2C)cc1` (centres unmarked) [Example 20]: the values for the ED50 in the data set with mice [1] and in the data set with rats were 4.6 mg/kg and around 4 mg/kg, respectively. The “Minimum toxic dose in mice” value with mice [2] stood at 300 mg/kg.

For `COc1ccc2c(c1)N(C)C(CNC(=O)c1ccccc1)CN=C2c1ccc(F)cc1` (centres unmarked) [Example 2, 8-Methoxy-1-methyl-2-benzoyl amino methyl-5-(4'-fluorophenyl)-1H-2,3-dihydro-1,4-benzo diazepine], the ED50 amounted to 0.64 mg/kg in the data set on mice [1] and 2 mg/kg in the data set on rats. Besides, the “Minimum toxic dose in mice” value in the data set on mice [2] worked out at 50 mg/kg.

For the compound `CCN1c2ccccc2C(c2ccccc2)=NCC1CNC(=O)c1ccc(C(F)(F)F)cc1` (centres unmarked) [Example 155], the ED50 in the data set on rats was around 2 mg/kg.

`COc1ccc(CC(=O)NCC2CN=C(c3ccccc3)c3cc(Cl)ccc3N2C)cc1OC` (centres unmarked) [Example 112]: the ED50 in the data set with mice [1] was 20 mg/kg; in the data set on rats, 10 mg/kg. Further, the “Minimum toxic dose in mice” value with mice [2] was found to be 50 mg/kg.

For the compound `Cc1ccc2c(c1)C(c1ccccc1F)=NCC(CNC(=O)c1ccccc1)N2C` (centres unmarked) [Example 47], the ED50 in the data set on mice [1] was 5.6 mg/kg; with rats, around 13 mg/kg. The “Minimum toxic dose in mice” value in the data set on mice [2] is above 300 mg/kg.

In the case of `Cc1ccc(C(=O)NCC2CN=C(c3ccccc3)c3ccccc3N2C)cc1` (centres unmarked) [Example 25], the ED50 is 2.5 mg/kg with mice [1] and 3.2 mg/kg in the data set on rats.

Regarding `COc1ccc2c(c1)N(C)C(CNC(=O)c1ccccc1)CN=C2c1cccc(F)c1` (centres unmarked) [Example 58], the ED50 was 1.6 mg/kg in the data set on mice [1] and around 18 mg/kg with rats. Further, in the data set on mice [2], the “Minimum toxic dose in mice” value is 300 mg/kg.

As for `COc1ccc(CC(=O)NCC2CN=C(c3ccccc3)c3cc4c(cc3N2C)OCO4)cc1OC` (centres unmarked) [Example 113], the ED50 in the data set on mice [1] is below 5.6 mg/kg; in the data set with rats it was 18 to 32 mg/kg. For the same compound, the “Minimum toxic dose in mice” value in the data set on mice [2] was determined as 100 mg/kg.

As for `COc1ccc(C(=O)NCC2CN=C(c3ccc(F)cc3)c3ccccc3N2C)cc1` (centres unmarked) [Example 40], in the data set with rats, the ED50 came to 11 mg/kg. Besides, the “Minimum toxic dose in mice” value in the data set with mice [2] is above 300 mg/kg.

On to `CN1c2ccccc2C(c2ccccc2F)=NCC1CNC(=O)c1ccc(C(F)(F)F)cc1` (centres unmarked) [Example 33], for which the results for the ED50 with mice [1] and in the data set on rats were 1.4 mg/kg and 5.6 to 10 mg/kg, respectively. Further, the “Minimum toxic dose in mice” value in the data set on mice [2] is above 300 mg/kg.

As to `CN1c2ccccc2C(c2ccccc2)=NCC1CNC(=O)c1ccc(Cl)c(Cl)c1` (centres unmarked) [Example 19, 1-Methyl-2-(3,4-dichlorobenzoylaminomethyl)-5-phenyl-1H--2,3-dihydro-1,4-benzo diazepine hydrochloride], the results for the ED50 in the data set on mice [1] and in the data set with rats were 1 mg/kg and around 2.3 mg/kg, respectively. The “Minimum toxic dose in mice” value in the data set with mice [2] was above 300 mg/kg.
